Values quoted from earlier work as cited in patent US6586005B1, “Extended release formulation of etodolac” (Ranbaxy Laboratories Limited, priority 1999, dated 2003).

For `CCc1cccc2c3c([nH]c12)C(CC)(CC(=O)O)OCC3` (centres unmarked) [Etodolac, 1,8-diethyl-1,3,4,9-tetrahydropyrano [3,4-b] indole-1-acetic acid], the “Difference between solubility at pH 5 to pH 7” value (pH 5 versus pH 7) is listed as “thirty” and the Aqueous solubility (pH independent below pH 3) is listed as “very low aqueous solubility”.
